# Laboratory results from patent publication US8338472B2, “Hexahydrocyclopentyl[F]indazole carboxamides and derivatives thereof as selective glucocorticoid receptor modulators” (Merck Sharp & Dohme Corp., priority 2008, dated 2012).
# Like-named read-outs stand apart in the source and are kept apart here.
# How the values were obtained:
# [1] = molecular target: T1, glucocorticoid receptor (GR) (Homo sapiens, UniProt P04150); assay: Ligand binding assay (GR BIND), 3H-dexamethasone displacement in MDA-MB-453 cell lysate; conditions: GR BIND Ki, Table 1
# T1 sequence (P04150 1-777): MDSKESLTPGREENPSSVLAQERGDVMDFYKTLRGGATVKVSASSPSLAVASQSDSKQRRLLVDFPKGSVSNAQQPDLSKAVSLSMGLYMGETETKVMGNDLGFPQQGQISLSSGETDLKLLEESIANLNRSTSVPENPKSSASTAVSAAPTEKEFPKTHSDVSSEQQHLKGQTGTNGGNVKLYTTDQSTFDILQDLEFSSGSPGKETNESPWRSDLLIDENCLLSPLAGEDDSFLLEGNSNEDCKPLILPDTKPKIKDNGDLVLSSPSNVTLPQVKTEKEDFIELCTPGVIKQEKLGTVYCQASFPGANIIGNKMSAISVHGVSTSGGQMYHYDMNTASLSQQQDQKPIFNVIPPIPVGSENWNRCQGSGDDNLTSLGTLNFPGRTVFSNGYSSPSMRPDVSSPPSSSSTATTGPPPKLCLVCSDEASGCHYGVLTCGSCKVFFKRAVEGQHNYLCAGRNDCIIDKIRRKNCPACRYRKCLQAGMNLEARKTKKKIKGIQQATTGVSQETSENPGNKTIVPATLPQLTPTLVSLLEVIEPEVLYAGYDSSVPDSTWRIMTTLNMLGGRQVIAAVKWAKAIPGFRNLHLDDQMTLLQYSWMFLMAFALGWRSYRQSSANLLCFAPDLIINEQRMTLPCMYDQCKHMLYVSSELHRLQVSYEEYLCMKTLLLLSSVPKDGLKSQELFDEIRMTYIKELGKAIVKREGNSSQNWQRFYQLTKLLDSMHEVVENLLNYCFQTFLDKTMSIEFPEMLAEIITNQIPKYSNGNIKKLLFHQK
# human GR = molecular target: T2, human GR (Homo sapiens, UniProt P04150); assay: Transrepression Assay (GITAR), TNFα-β-lactamase reporter gene in U937 cells; format: cell-based; conditions: for GITAR Greater than by GRAMMER % SEP: GITAR Emax minus GRAMMER Emax; for EC50: inflection point, read-out: Transrepression U937 Cells GITAR IP; for EC50 / Transrepression U937 Cells GITAR Emax: U937 cells
# T2 construct: U937 cells contain an endogenous glucocorticoid receptor (GR); endogenous in cells; host or cells: U937 cells stably transfected with the TNF-alpha promoter/beta-lactamase reporter
# T2 sequence (P04150 1-777): T1 sequence (P04150 1-777)
# Procedure, shortened: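 Repression of PMA (5 ng/ml final)/LPS (100 ng/ml final)-induced TNF-α promoter activity, read as β-lactamase cleavage of CCF2-AM, in stably transfected U937 cells expressing native GR. Compound added 30-45 min before stimulation, overnight (~18 hr) 37° C; normalized to 100 nM dexamethasone (100%).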
# Glucocorticoid Receptor = molecular target: T3, Glucocorticoid Receptor (Homo sapiens, UniProt P04150); assay: Trans-Activation Modulation of Glucocorticoid Receptor (GRAMMER), MMTV-LUC reporter gene in A549 cells; format: cell-based; conditions: Table 1; for Emax: A549, A549 cells, read-out: Transactivation A549 Cells GRAMMER Emax; for Emax / Transactivation A549 Cells GRAMMER Emax: Emax relative to 300 nM dexamethasone; for EC50: inflection point, read-out: Transactivation A549 Cells GRAMMER IP; for EC50 / Transactivation A549 Cells GRAMMER Emax: A549 cells
# T3 construct: These cells express large amount of the GR and are very responsive to GC treatment; endogenous in cells; host or cells: A549 cells transiently transfected with the MMTV-LUC reporter
# T3 sequence (P04150 1-777): T1 sequence (P04150 1-777)
# Procedure, shortened: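 Luciferase from a transiently transfected MMTV-LUC reporter was measured after 24 h compound exposure (≤1% DMSO) in A549 or MDA-MB-453 cells. For antagonism, the decrease of 10 nM dexamethasone-induced signal was calculated. For agonism, Emax was referenced to 300 nM dexamethasone.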
# [2] = U-937, U937 cells, activity repressed by 100 nM dexamethasone = 100%, Table 1, read-out: Transrepression U937 Cells GITAR Emax
# [3] = U-937, text statement, 100 nM dexamethasone = 100%, read-out: maximal activity in the transrepression assay (GITAR)
# [4] = activity repressed by 100 nM dexamethasone = 100%, Table 1
Structure (SMILES),Ki [1] [nM],GITAR Greater than by GRAMMER % SEP (human GR; Table 1) [%],Emax (human GR; [2]) [%],Emax (human GR; [3]) [%],EC50 (human GR; Table 1) [nM],Emax (Glucocorticoid Receptor) [%],EC50 (Glucocorticoid Receptor) [nM],Transrepression U937 Cells GITAR Emax (human GR; [4]) [%],Transactivation A549 Cells GRAMMER Emax (Glucocorticoid Receptor) [%]
"C[C@]12Cc3cnn(-c4ccc(F)cc4)c3C=C1CC[C@@H]2C(=O)N(CCO)CC(O)C(F)(F)F (stereo partly drawn) [Compound 60, (4αR,5S)-1-(4-fluorophenyl)-N-(2-hydroxyethyl)-4α-methyl-N-(3,3,3-trifluoro-2-hydroxypropyl)-1,4,4α,5,6,7-hexahydrocyclopenta[f]indazole-5-carboxamide]",12.6,29.8,85.4,> 5,87.1,55.6,46.3,,
"CCCN(CC(O)C(F)(F)F)C(=O)[C@H]1CCC2=Cc3c(cnn3-c3ccc(F)cc3)C[C@@]21C (stereo partly drawn) [Compound 61, (4αR,5S)-1-(4-fluorophenyl)-4α-methyl-N-propyl-N-(3,3,3-trifluoro-2-hydroxypropyl)-1,4,4α,5,6,7-hexahydrocyclopenta[f]indazole-5-carboxamide]",1,14.0,96.5,> 5,41.2,82.4,55.6,,
"CCCN(CC1CCCO1)C(=O)[C@H]1CCC2=Cc3c(cnn3-c3ccc(F)cc3)C[C@@]21C (stereo partly drawn) [Compound 62, (4αR,5S)-1-(4-fluorophenyl)-4α-methyl-N-propyl-N-(tetrahydrofuran-2-ylmethyl)-1,4,4α,5,6,7-hexahydrocyclopenta[f]indazole-5-carboxamide]",6.9,23.5,41.5,> 5,688,18,602,,
"CCCN(CC1CCCO1)C(=O)[C@H]1CCC2=Cc3c(cnn3-c3ccc(F)cc3)C[C@@]21C (stereo partly drawn) [Compound 63, (4αR,5S)-1-(4-fluorophenyl)-4α-methyl-N-propyl-N-(tetrahydrofuran-2-ylmethyl)-1,4,4α,5,6,7-hexahydrocyclopenta[f]indazole-5-carboxamide]",6,17.6,,,713,,725,45.9,28.3
"C[C@]12Cc3cnn(-c4ccc(F)cc4)c3C=C1CC[C@@H]2C(=O)N(CC1CCC1)CC1CCCO1 (stereo partly drawn) [Compound 64, (4αR,5S)-N-(cyclobutylmethyl)-1-(4-fluorophenyl)-4α-methyl-N-(tetrahydrofuran-2-ylmethyl)-1,4,4α,5,6,7-hexahydrocyclopenta[f]indazole-5-carboxamide]",1.9,9.5,36.6,> 5,479,27.1,674,,
"CCCN(C[C@H](C)O)C(=O)[C@H]1CCC2=Cc3c(cnn3-c3ccc(F)cc3)C[C@@]21C [Compound 65, (4αR,5S)-1-4-(4-fluorophenyl)-N-[(2S)-2-hydroxypropyl]-4α-methyl-N-propyl-1,4,4α,5,6,7-hexahydrocyclopenta[f]indazole-5-carboxamide]",4.7,8.4,81.2,> 5,424,72.8,431,,
"CC(C)CN(C[C@H](C)O)C(=O)[C@H]1CCC2=Cc3c(cnn3-c3ccc(F)cc3)C[C@@]21C [Compound 66, (4αR,5S)-1-(4-fluorophenyl)-N-[(2S)-2-hydroxypropyl]-N-isobutyl-4α-methyl-1,4,4α,5,6,7-hexahydrocyclopenta[f]indazole-5-carboxamide]",8.7,10.5,78.1,> 5,685,67.6,613,,
"CC(C)CN(C[C@@H](C)O)C(=O)[C@H]1CCC2=Cc3c(cnn3-c3ccc(F)cc3)C[C@@]21C [Compound 67, (4αR,5S)-1-(4-fluorophenyl)-N-[(2R)-2-hydroxypropyl]-N-isobutyl-4α-methyl-1,4,4α,5,6,7-hexahydrocyclopenta[f]indazole-5-carboxamide]",5.1,9.9,76.9,> 5,558,67,725,,
"C[C@]12Cc3cnn(-c4ccc(F)cc4)c3C=C1CC[C@@H]2C(=O)N(CCO)c1ccccc1 [Compound 68, (4αR,5S)-1-(4-fluorophenyl)-N-(2-hydroxyethyl)-4α-methyl-N-phenyl-1,4,4α,5,6,7-hexahydrocyclopenta[f]indazole-5-carboxamide]",3.8,14.4,18.2,> 5,1020,3.8,128,,

# Continued, values first:
Ki [1] [nM],GITAR Greater than by GRAMMER % SEP (human GR; Table 1) [%],Emax (human GR; [2]) [%],Emax (human GR; [3]) [%],EC50 (human GR; Table 1) [nM],Emax (Glucocorticoid Receptor) [%],EC50 (Glucocorticoid Receptor) [nM],Transrepression U937 Cells GITAR Emax (human GR; [4]) [%],Transactivation A549 Cells GRAMMER Emax (Glucocorticoid Receptor) [%],Structure (SMILES)
5.4,42.6,64.4,> 5,714,21.9,680,,,"C[C@H](O)CN(CCc1ccccc1F)C(=O)[C@H]1CCC2=Cc3c(cnn3-c3ccc(F)cc3)C[C@@]21C [Compound 69, (4αR,5S)-1-(4-fluorophenyl)-N-[2-(2-fluorophenyl)ethyl]-N-[(2S)-2-hydroxypropyl]-4α-methyl-1,4,4α,5,6,7-hexahydrocyclopenta[f]indazole-5-carboxamide]"
10.7,24.5,86.9,> 5,276,62.5,231,,,"CN(CC(O)C(F)(F)F)C(=O)[C@H]1CCC2=Cc3c(cnn3-c3ccc(F)cc3)C[C@@]21C (stereo partly drawn) [Compound 70, (4αR,5S)-1-(4-fluorophenyl)-N,4α-dimethyl-N-(3,3,3-trifluoro-2-hydroxypropyl)-1,4,4α,5,6,7-hexahydrocyclopenta[f]indazole-5-carboxamide]"
2.6,24.0,95.6,> 5,85,71.7,151,,,"CCN(CC(O)C(F)(F)F)C(=O)[C@H]1CCC2=Cc3c(cnn3-c3ccc(F)cc3)C[C@@]21C (stereo partly drawn) [Compound 71, (4αR,5S)-N-ethyl-1-(4-fluorophenyl)-4α-methyl-N-(3,3,3-trifluoro-2-hydroxypropyl)-1,4,4α,5,6,7-hexahydrocyclopenta[f]indazole-5-carboxamide]"
2.3,19.6,,,43.9,,37,90.8,71.2,"CCN(CC(O)C(F)(F)F)C(=O)[C@H]1CCC2=Cc3c(cnn3-c3ccc(F)cc3)C[C@@]21C (stereo partly drawn) [Compound 72, (4αR,5S)-N-ethyl-1-(4-fluorophenyl)-4α-methyl-N-(3,3,3-trifluoro-2-hydroxypropyl)-1,4,4α,5,6,7-hexahydrocyclopenta[f]indazole-5-carboxamide]"
2.1,18.4,89.5,> 5,137,71.1,152,,,"C[C@H](O)CN(CCC(F)(F)F)C(=O)[C@H]1CCC2=Cc3c(cnn3-c3ccc(F)cc3)C[C@@]21C [Compound 73, (4αR,5S)-1-(4-fluorophenyl)-N-[(2S)-2-hydroxypropyl]-4α-methyl-N-(3,3,3-trifluoropropyl)-1,4,4α,5,6,7-. hexahydrocyclopenta[f]indazole-5-carboxamide]"
